Patent US11548868B2, “Heterocyclic compounds, compositions comprising heterocyclic compound, and methods of use thereof” (JS INNOPHARM (SHANGHAI) LTD, priority 2017, dated 2023)

Target: T1, TDO2 in A172 cancer cells (Homo sapiens, UniProt P48775)
T1 construct: endogenous in cells; host or cells: A172 cancer cells
Experiment: TDO2 Cellular Assay (kynurenine production in A172 cancer cells)
Type: cell-based
Settings: L-Trp 1 mM, 24 hours incubation, kynurenine at 490 nm
Protocol: A172 cancer cells (3×10^4 per well) in 85 μL DMEM medium containing 10% FBS were seeded in a 96-well plate and incubated at 95% humidity and 5% CO2 at 37° C. for overnight. On the next day, L-Trp solution (10 μL, 1 mM final concentration) and serial dilutions of the test compounds and DMEM medium resulting in a total final volume of 100 μL each well. The test compounds were dissolved in DMSO and successively diluted with pH7.5 butter (with final DMSO concentration of 0.25%) resulting in final concentrations of the test compounds ranging from 0 to 25 μM (0, 2.5, 7.5, 25, 75, 250, 750, 2500, 7500, & 25000 nM). After 24 hours of incubation, 70 uL of the supernatant per well was transferred to a new 96 well plate. 8 μL of trichloroacetic acid (6.1 N) was mixed into each well and incubated at 50° C. for 30 min to hydrolyze N-formylkynurenine to kynurenine. The reaction mixture was then centrifuged for 10 min at 2500 RPM to remove sediments. 50 μL of the supernatant per well was transferred to another 96 well plate and mixed with 50 μL of 2% (w/v) p-dimethylaminobenzaldehyde in acetic acid. The yellow color derived from kynurenine was measured at 490 nm using a microplate reader. Percent inhibition of the test compounds was determined by measuring the decrease in kynurenine as compared to the control of DMSO vehicle, which was calculated by formula of (WC−WT)/WC, where WC is the mean absorbance of the control well minus blank well; WT is the mean absorbance of the test well minus the blank well. Data was analyzed by GraphPad Prism 5 and the IC50 values were obtained by non-linear regression.
The IC50 values of for Compounds disclosed are listed in Table 2, A′: ≤0.5 μM; B′: >0.5 μM and ≤1 μM; C′: >1.0 μM and ≤5 uM; and D′: >5 μM.

T1 sequence (P48775 whole entry): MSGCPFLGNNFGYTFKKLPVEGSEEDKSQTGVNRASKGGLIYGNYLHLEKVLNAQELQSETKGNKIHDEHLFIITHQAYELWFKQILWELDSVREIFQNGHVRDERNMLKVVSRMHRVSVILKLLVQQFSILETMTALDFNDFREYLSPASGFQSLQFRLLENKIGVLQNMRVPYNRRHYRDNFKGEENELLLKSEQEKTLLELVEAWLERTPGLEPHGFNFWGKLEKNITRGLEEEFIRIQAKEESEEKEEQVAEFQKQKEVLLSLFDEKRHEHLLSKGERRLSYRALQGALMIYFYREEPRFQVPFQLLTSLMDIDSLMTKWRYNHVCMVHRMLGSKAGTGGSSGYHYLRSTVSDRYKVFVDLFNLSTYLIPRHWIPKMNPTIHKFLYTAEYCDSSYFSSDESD

| IC50 [µM] | SMILES |
| --- | --- |
| ≤ 0.5 | O=C(N[C@H]1[C@@H]2C[C@@](O)(c3cc(Cl)cc4[nH]ncc34)C[C@@H]21)C1CCCO1 (stereo partly drawn) [Example 75, N-((1R,3r,5S,6r)-3-(6-chloro-1H-indazol-4-yl)-3-hydroxybicyclo[3.1.0]hexan-6-yl)tetrahydrofuran-2-carboxamide] |
| ≤ 0.5 | O=C(N[C@H]1[C@@H]2C[C@@](O)(c3cc(Cl)cc4[nH]ncc34)C[C@@H]21)C1CCOCC1 [Example 91, N-((1R,3r,5S,6r)-3-(6-chloro-1H-indazol-4-yl)-3-hydroxybicyclo[3.1.0]hexan-6-yl)tetrahydro-2H-pyran-4-carboxamide] |
| ≤ 0.5 | CC(C)S(=O)(=O)N[C@H]1[C@@H]2C[C@@](O)(c3cc(Cl)cc4[nH]ncc34)C[C@@H]21 [Example 77, N-((1R,3r,5S,6r)-3-(6-chloro-1H-indazol-4-yl)-3-hydroxybicyclo[3.1.0]hexan-6-yl)propane-2-sulfonamide] |
| ≤ 0.5 | O=C(N[C@H]1[C@@H]2C[C@@](O)(c3cc(Cl)cc4[nH]ncc34)C[C@@H]21)C1CCOC1 (stereo partly drawn) [Example 72, N-((1R,3r,5S,6r)-3-(6-chloro-1H-indazol-4-yl)-3-hydroxybicyclo[3.1.0]hexan-6-yl)tetrahydrofuran-3-carboxamide] |
| ≤ 0.5 | O=C(CC1CC1)N1C[C@@H]2C[C@@](O)(c3cc(Cl)cc4[nH]ncc34)C[C@@H]2C1 [Example 69, 1-((3aR,5r,6aS)-5-(6-chloro-1H-indazol-4-yl)-5-hydroxyhexahydrocyclopenta[c]pyrrol-2(1H)-yl)-2-cyclopropylethanone] |
| ≤ 0.5 | O=C(C1CCCCC1)N1C[C@@H]2C[C@@](O)(c3cc(Cl)cc4[nH]ncc34)C[C@@H]2C1 [Example 62, ((3aR,5r,6aS)-5-(6-chloro-1H-indazol-4-yl)-5-hydroxyhexahydrocyclopenta[c]pyrrol-2(1H)-yl)(cyclohexyl)methanone] |
| ≤ 0.5 | CC(C)(C)C(=O)N[C@H]1[C@@H]2C[C@@](O)(c3cc(Cl)cc4[nH]ncc34)C[C@@H]21 [Example 90, N-((1R,3r,5S,6r)-3-(6-chloro-1H-indazol-4-yl)-3-hydroxybicyclo[3.1.0]hexan-6-yl)pivalamide] |
| ≤ 0.5 | O=C(N[C@H]1[C@@H]2C[C@@](O)(c3cc(Cl)cc4[nH]ncc34)C[C@@H]21)C1CCCC1 [Example 79, N-((1R,3r,5S,6r)-3-(6-chloro-1H-indazol-4-yl)-3-hydroxybicyclo[3.1.0]hexan-6-yl)cyclopentanecarboxamide] |
| ≤ 0.5 | CCOC(=O)N[C@H]1[C@@H]2C[C@@](O)(c3cc(Cl)cc4[nH]ncc34)C[C@@H]21 [Example 81, ethyl ((1R,3r,5S,6r)-3-(6-chloro-1H-indazol-4-yl)-3-hydroxybicyclo[3.1.0]hexan-6-yl)carbamate] |
| ≤ 0.5 | CC(C)OC(=O)N[C@H]1[C@@H]2C[C@@](O)(c3cc(Cl)cc4[nH]ncc34)C[C@@H]21 [Example 86, isopropyl ((1R,3r,5S,6r)-3-(6-chloro-1H-indazol-4-yl)-3-hydroxybicyclo[3.1.0]hexan-6-yl)carbamate] |
| ≤ 0.5 | O=C(N[C@H]1[C@@H]2C[C@@](O)(c3cc(Cl)cc4[nH]ncc34)C[C@@H]21)C1CC1 [Example 76, N-((1R,3r,5S,6r)-3-(6-chloro-1H-indazol-4-yl)-3-hydroxybicyclo[3.1.0]hexan-6-yl)cyclopropanecarboxamide] |
| ≤ 0.5 | O=S(=O)(N[C@H]1[C@@H]2C[C@@](O)(c3cc(Cl)cc4[nH]ncc34)C[C@@H]21)C1CCOCC1 [Example 94, N-((1R,3r,5S,6r)-3-(6-chloro-1H-indazol-4-yl)-3-hydroxybicyclo[3.1.0]hexan-6-yl)tetrahydro-2H-pyran-4-sulfonamide] |
| ≤ 0.5 | CC(C)C(=O)N[C@H]1[C@@H]2C[C@@](O)(c3cc(Cl)cc4[nH]ncc34)C[C@@H]21 [Example 92, N-((1R,3r,5S,6r)-3-(6-chloro-1H-indazol-4-yl)-3-hydroxybicyclo[3.1.0]hexan-6-yl)isobutyramide] |
| ≤ 0.5 | O=S(=O)(N[C@H]1[C@@H]2C[C@@](O)(c3cc(Cl)cc4[nH]ncc34)C[C@@H]21)C1CCCC1 [Example 74, N-((1R,3r,5S,6r)-3-(6-chloro-1H-indazol-4-yl)-3-hydroxybicyclo[3.1.0]hexan-6-yl)cyclopentanesulfonamide] |
| ≤ 0.5 | CC(C)C(=O)N1C[C@@H]2C[C@@](O)(c3cc(Cl)cc4[nH]ncc34)C[C@@H]2C1 [Example 65, 1-((3aR,5r,6aS)-5-(6-chloro-1H-indazol-4-yl)-5-hydroxyhexahydrocyclopenta[c]pyrrol-2(1H)-yl)-2-methylpropan-1-one] |
| ≤ 0.5 | O=S(=O)(N[C@H]1[C@@H]2C[C@@](O)(c3cc(Cl)cc4[nH]ncc34)C[C@@H]21)C1CC1 [Example 73, N-((1R,3r,5S,6r)-3-(6-chloro-1H-indazol-4-yl)-3-hydroxybicyclo[3.1.0]hexan-6-yl)cyclopropanesulfonamide] |

Second part, the compound before the results:

| SMILES | IC50 [µM] |
| --- | --- |
| N#Cc1ccc(C(=O)N2C[C@@H]3CN(c4cc(Cl)cc5[nH]ncc45)C[C@@H]3C2)cc1 [Example 34, 4-((3aR,6aS)-5-(6-chloro-1H-indazol-4-yl)octahydropyrrolo[3,4-c]pyrrole-2-carbonyl)benzonitrile] | > 5 |
| CC1(C)[C@H]2CN(c3cc(Cl)cn4cncc34)C[C@H]2CN1S(C)(=O)=O (racemic) [Example 49, Racemic-6-chloro-8-((3aR,6aS)-4,4-dimethyl-5-(methylsulfonyl)hexahydropyrrolo[3,4-c]pyrrol-2(1H)-yl)imidazo[1,5-a]pyridine] | 1 to 5 |
| N#Cc1ccc(S(=O)(=O)N2C[C@H]3CN(c4cc(Cl)cc5[nH]ncc45)C[C@H]3C2)cc1 [Example 33, 4-(((3aR,6aS)-5-(6-chloro-1H-indazol-4-yl)hexahydropyrrolo[3,4-c]pyrrol-2(1H)-yl)sulfonyl)benzonitrile] | > 5 |
| CC1(C)C2CN(c3cc(Cl)cc4[nH]ncc34)CC2CN1C(=O)C1CC1 (stereo not shown) [Example 29, (5-(6-chloro-1H-indazol-4-yl)-1,1-dimethylhexahydropyrrolo[3,4-c]pyrrol-2(1H)-yl)(cyclopropyl)methanone] | 0.5 to 1 |
| CC(=O)N1C[C@@H]2CN(c3c(C(F)(F)F)ccn4cncc34)C[C@@H]2C1(C)C (racemic) [Example 58, Racemic-1-((3aS,6aR)-1,1-dimethyl-5-(7-(trifluoromethyl)imidazo[1,5-a]pyridin-8-yl)hexahydropyrrolo[3,4-c]pyrrol-2(1H)-yl)ethanone] | > 5 |
| CC1(C)C2CN(c3cc(Cl)cc4[nH]ncc34)CC2CN1S(=O)(=O)c1ccc(C#N)cc1 (stereo not shown) [Example 26, 4-(5-(6-chloro-1H-indazol-4-yl)-1,1-dimethylhexahydropyrrolo[3,4-c]pyrrol-2(1H)-ylsulfonyl)benzonitrile] | 1 to 5 |
| CC(C)OC(=O)N1C[C@@H]2C[C@@](O)(c3cc(Cl)cc4[nH]ncc34)C[C@@H]2C1 [Example 61, (3aR,5r,6aS)-isopropyl 5-(6-chloro-1H-indazol-4-yl)-5-hydroxyhexahydrocyclopenta[c]pyrrole-2(1H)-carboxylate] | ≤ 0.5 |
| CC(=O)N1C[C@H]2C[C@@H](c3cc(C(F)(F)F)cn4cncc34)C[C@H]2C1 [Example 4, 1-((3aR,5r,6aS)-5-(6-(trifluoromethyl)imidazo[1,5-a]pyridin-8-yl)hexahydrocyclopenta[c]pyrrol-2(1H)-yl)ethanone] | > 5 |
| CC1(C)C2CN(c3cc(Cl)cc4[nH]ncc34)CC2CN1S(C)(=O)=O (racemic) [Example 1, 6-chloro-4-(4,4-dimethyl-5-(methylsulfonyl)hexahydropyrrolo[3,4-c]pyrrol-2(1H)-yl)-1H-indazole] | ≤ 0.5 |
| O=C(C1CCC1)N1C[C@@H]2C[C@@](O)(c3cc(Cl)cc4[nH]ncc34)C[C@@H]2C1 [Example 60, ((3aR,5r,6aS)-5-(6-chloro-1H-indazol-4-yl)-5-hydroxyhexahydrocyclopenta[c]pyrrol-2(1H)-yl)(cyclobutyl)methanone] | ≤ 0.5 |
| CC1(C)[C@H]2CN(c3cc(Cl)cc4[nH]ncc34)C[C@H]2CN1C(N)=O (racemic) [Example 31, Racemic-(3aS,6aR)-5-(6-chloro-1H-indazol-4-yl)-1,1-dimethylhexahydropyrrolo[3,4-c]pyrrole-2(1H)-carboxamide] | ≤ 0.5 |
| CC1(C)[C@H]2CN(c3c(C(F)(F)F)ccn4cncc34)C[C@H]2CN1S(C)(=O)=O (racemic) [Example 57, Racemic-8-((3aR,6aS)-4,4-dimethyl-5-(methylsulfonyl)hexahydropyrrolo[3,4-c]pyrrol-2(1H)-yl)-7-(trifluoromethyl)imidazo[1,5-a]pyridine] | > 5 |
